According to ChEMBL document CHEMBL5506059, “Cyanomethylquinolones as a New Class of Potential Multitargeting Broad-Spectrum Antibacterial Agents” (J Med Chem, 2024):
Converted amounts (≈) assume the structure as drawn.

Assays:
Format in all cases: functional
Staphylococcus aureus [1] = assay: Antibacterial activity against Staphylococcus aureus clinical isolate assessed as inhibition of bacterial growth incubated for 24 hrs
Acinetobacter baumannii = assay: Antibacterial activity against Acinetobacter baumannii clinical isolate assessed as inhibition of bacterial growth incubated for 24 hrs
Escherichia coli [2] = assay: Antibacterial activity against Escherichia coli ATCC 25922 assessed as inhibition of bacterial growth incubated for 24 hrs
Staphylococcus aureus [3] = assay: Antibacterial activity against Staphylococcus aureus ATCC 25923 assessed as inhibition of bacterial growth incubated for 24 hrs
Enterococcus faecalis = assay: Antibacterial activity against Enterococcus faecalis clinical isolate assessed as inhibition of bacterial growth incubated for 24 hrs
Escherichia coli [4] = assay: Antibacterial activity against Escherichia coli clinical isolate assessed as inhibition of bacterial growth incubated for 24 hrs
Pseudomonas aeruginosa [5] = assay: Antibacterial activity against Pseudomonas aeruginosa clinical isolate assessed as inhibition of bacterial growth incubated for 24 hrs
Staphylococcus aureus [6] = assay: Antibacterial activity against methicillin resistant Staphylococcus aureus clinical isolate assessed as inhibition of bacterial growth incubated for 24 hrs
Staphylococcus aureus [7] = assay: Antibacterial activity against Staphylococcus aureus ATCC 29213 assessed as inhibition of bacterial growth incubated for 24 hrs
Klebsiella pneumoniae = assay: Antibacterial activity against Klebsiella pneumoniae clinical isolate assessed as inhibition of bacterial growth incubated for 24 hrs
Pseudomonas aeruginosa [8] = assay: Antibacterial activity against Pseudomonas aeruginosa ATCC 27853 assessed as inhibition of bacterial growth incubated for 24 hrs

| Compound | MIC (Staphylococcus aureus [1]) | MIC (Acinetobacter baumannii) | MIC (Escherichia coli [2]) | MIC (Staphylococcus aureus [3]) | MIC (Enterococcus faecalis) | MIC (Escherichia coli [4]) | MIC (Pseudomonas aeruginosa [5]) | MIC (Staphylococcus aureus [6]) | MIC (Staphylococcus aureus [7]) | MIC (Klebsiella pneumoniae) | MIC (Pseudomonas aeruginosa [8]) |
| --- | --- | --- | --- | --- | --- | --- | --- | --- | --- | --- | --- |
| N#CCc1cc2c(cc1F)c(=O)c(C(=O)O)cn2CCN1CCOCC1 | 16 µg/mL (≈ 44.5 µM) | 8 µg/mL (≈ 22.3 µM) | 4 µg/mL (≈ 11.1 µM) | 1 µg/mL (≈ 2.78 µM) | 16 µg/mL (≈ 44.5 µM) | 16 µg/mL (≈ 44.5 µM) | 2 µg/mL (≈ 5.57 µM) | 8 µg/mL (≈ 22.3 µM) | 4 µg/mL (≈ 11.1 µM) | 8 µg/mL (≈ 22.3 µM) | 16 µg/mL (≈ 44.5 µM) |
| N#CCc1cc2c(cc1F)c(=O)c(C(=O)O)cn2Cc1cnc(Cl)s1 | 8 µg/mL (≈ 21.2 µM) | 16 µg/mL (≈ 42.4 µM) | 1 µg/mL (≈ 2.65 µM) | 8 µg/mL (≈ 21.2 µM) | 16 µg/mL (≈ 42.4 µM) | 8 µg/mL (≈ 21.2 µM) | 0.5 µg/mL (≈ 1.32 µM) | 1 µg/mL (≈ 2.65 µM) | 4 µg/mL (≈ 10.6 µM) | 8 µg/mL (≈ 21.2 µM) | 2 µg/mL (≈ 5.29 µM) |
| N#CCc1cc2c(cc1F)c(=O)c(C(=O)O)cn2CC1CCC1 | 64 µg/mL (≈ 204 µM) | 256 µg/mL (≈ 814 µM) | 128 µg/mL (≈ 407 µM) | 0.5 µg/mL (≈ 1.59 µM) | 32 µg/mL (≈ 102 µM) | 128 µg/mL (≈ 407 µM) | 256 µg/mL (≈ 814 µM) | 128 µg/mL (≈ 407 µM) | 256 µg/mL (≈ 814 µM) | 256 µg/mL (≈ 814 µM) | 128 µg/mL (≈ 407 µM) |
| Cc1ccc(Cn2cc(C(=O)O)c(=O)c3cc(F)c(CC#N)cc32)cc1 | 256 µg/mL (≈ 731 µM) | 256 µg/mL (≈ 731 µM) | 0.25 µg/mL (≈ 0.714 µM) | 0.25 µg/mL (≈ 0.714 µM) | 4 µg/mL (≈ 11.4 µM) | 256 µg/mL (≈ 731 µM) | 0.5 µg/mL (≈ 1.43 µM) | 8 µg/mL (≈ 22.8 µM) | 256 µg/mL (≈ 731 µM) | 256 µg/mL (≈ 731 µM) | 4 µg/mL (≈ 11.4 µM) |
| N#CCc1cc2c(cc1F)c(=O)c(C(=O)O)cn2Cc1ccccn1 | 256 µg/mL (≈ 759 µM) | 2 µg/mL (≈ 5.93 µM) | 0.25 µg/mL (≈ 0.741 µM) | 1 µg/mL (≈ 2.96 µM) | 8 µg/mL (≈ 23.7 µM) | 8 µg/mL (≈ 23.7 µM) | 0.5 µg/mL (≈ 1.48 µM) | 32 µg/mL (≈ 94.9 µM) | 8 µg/mL (≈ 23.7 µM) | 4 µg/mL (≈ 11.9 µM) | 16 µg/mL (≈ 47.4 µM) |
| N#CCc1cc2c(cc1F)c(=O)c(C(=O)O)cn2Cc1ccccc1 | 256 µg/mL (≈ 761 µM) | 256 µg/mL (≈ 761 µM) | 0.25 µg/mL (≈ 0.743 µM) | 0.25 µg/mL (≈ 0.743 µM) | 4 µg/mL (≈ 11.9 µM) | 2 µg/mL (≈ 5.95 µM) | 0.25 µg/mL (≈ 0.743 µM) | 8 µg/mL (≈ 23.8 µM) | 0.5 µg/mL (≈ 1.49 µM) | 0.5 µg/mL (≈ 1.49 µM) | 1 µg/mL (≈ 2.97 µM) |
| N#CCc1cc2c(cc1F)c(=O)c(C(=O)O)cn2Cc1cc(F)ccc1F | 4 µg/mL (≈ 10.7 µM) | 64 µg/mL (≈ 172 µM) | 256 µg/mL (≈ 688 µM) | 256 µg/mL (≈ 688 µM) | 256 µg/mL (≈ 688 µM) | 256 µg/mL (≈ 688 µM) | 256 µg/mL (≈ 688 µM) | 256 µg/mL (≈ 688 µM) | 256 µg/mL (≈ 688 µM) | 16 µg/mL (≈ 43 µM) | 256 µg/mL (≈ 688 µM) |
| N#CCc1cc2c(cc1F)c(=O)c(C(=O)O)cn2CC1CCCCC1 | 256 µg/mL (≈ 748 µM) | 256 µg/mL (≈ 748 µM) | 256 µg/mL (≈ 748 µM) | 256 µg/mL (≈ 748 µM) | 256 µg/mL (≈ 748 µM) | 256 µg/mL (≈ 748 µM) | 16 µg/mL (≈ 46.7 µM) | 256 µg/mL (≈ 748 µM) | 256 µg/mL (≈ 748 µM) | 256 µg/mL (≈ 748 µM) | 256 µg/mL (≈ 748 µM) |
| CCCCCCn1cc(C(=O)O)c(=O)c2cc(F)c(CC#N)cc21 | 256 µg/mL (≈ 775 µM) | 256 µg/mL (≈ 775 µM) | 0.5 µg/mL (≈ 1.51 µM) | 0.25 µg/mL (≈ 0.757 µM) | 256 µg/mL (≈ 775 µM) | 4 µg/mL (≈ 12.1 µM) | 2 µg/mL (≈ 6.05 µM) | 256 µg/mL (≈ 775 µM) | 256 µg/mL (≈ 775 µM) | 8 µg/mL (≈ 24.2 µM) | 256 µg/mL (≈ 775 µM) |
| O=C(O)Cc1cc2c(cc1F)c(=O)c(C(=O)O)cn2Cc1ccccn1 | 64 µg/mL (≈ 180 µM) | 64 µg/mL (≈ 180 µM) | 32 µg/mL (≈ 89.8 µM) | 16 µg/mL (≈ 44.9 µM) | 16 µg/mL (≈ 44.9 µM) | 128 µg/mL (≈ 359 µM) | 64 µg/mL (≈ 180 µM) | 128 µg/mL (≈ 359 µM) | 64 µg/mL (≈ 180 µM) | 8 µg/mL (≈ 22.5 µM) | 8 µg/mL (≈ 22.5 µM) |
| C=CCn1cc(C(=O)O)c(=O)c2cc(F)c(CC#N)cc21 | 2 µg/mL (≈ 6.99 µM) | 8 µg/mL (≈ 27.9 µM) | 0.5 µg/mL (≈ 1.75 µM) | 0.5 µg/mL (≈ 1.75 µM) | 16 µg/mL (≈ 55.9 µM) | 256 µg/mL (≈ 894 µM) | 0.5 µg/mL (≈ 1.75 µM) | 0.5 µg/mL (≈ 1.75 µM) | 4 µg/mL (≈ 14 µM) | 1 µg/mL (≈ 3.49 µM) | 4 µg/mL (≈ 14 µM) |
| N#CCc1cc2c(cc1F)c(=O)c(C(=O)O)cn2Cc1ccc([N+](=O)[O-])cc1 | 256 µg/mL (≈ 671 µM) | 256 µg/mL (≈ 671 µM) | 128 µg/mL (≈ 336 µM) | 32 µg/mL (≈ 83.9 µM) | 8 µg/mL (≈ 21 µM) | 256 µg/mL (≈ 671 µM) | 4 µg/mL (≈ 10.5 µM) | 128 µg/mL (≈ 336 µM) | 256 µg/mL (≈ 671 µM) | 8 µg/mL (≈ 21 µM) | 32 µg/mL (≈ 83.9 µM) |
| N#CCc1cc2c(cc1F)c(=O)c(C(=O)O)cn2Cc1ccc(C(F)(F)F)cc1 | 8 µg/mL (≈ 19.8 µM) | 64 µg/mL (≈ 158 µM) | 8 µg/mL (≈ 19.8 µM) | 2 µg/mL (≈ 4.95 µM) | 0.5 µg/mL (≈ 1.24 µM) | 256 µg/mL (≈ 633 µM) | 16 µg/mL (≈ 39.6 µM) | 16 µg/mL (≈ 39.6 µM) | 4 µg/mL (≈ 9.89 µM) | 64 µg/mL (≈ 158 µM) | 8 µg/mL (≈ 19.8 µM) |
| CCn1cc(C(=O)O)c(=O)c2cc(F)c(CC#N)c(F)c21 | 0.25 µg/mL (≈ 0.855 µM) | 0.5 µg/mL (≈ 1.71 µM) | 0.5 µg/mL (≈ 1.71 µM) | 16 µg/mL (≈ 54.7 µM) | 8 µg/mL (≈ 27.4 µM) | 4 µg/mL (≈ 13.7 µM) | 1 µg/mL (≈ 3.42 µM) | 1 µg/mL (≈ 3.42 µM) | 1 µg/mL (≈ 3.42 µM) | 16 µg/mL (≈ 54.7 µM) | 4 µg/mL (≈ 13.7 µM) |
